Source: patent publication US20260374739A1, “SMALL MOLECULAR WEIGHT CHEMICAL COMPOUND TO ANTAGONIZE EPH-EPHRIN TETRAMERIZATION AND INHIBIT BIDIRECTIONAL SIGNALING” (THE BOARD OF REGENTS OF THE UNIVERSITY OF TEXAS SYSTEM, priority 2022, published 2026)

Experiments:
[1] = in vitro metabolic stability, murine microsomal assay; assay type: in vitro ADME, mouse; details: for half-life: mouse, liver microsomes, murine microsomal assay; for metabolic stability: murine microsomal, compared to A20
EphB2-EphrinB2 = target: T1, EphB2-EphrinB2 (Mus musculus, UniProt P54763); experiment: EphrinB2 co-immunoprecipitation with EphB2 in mouse brain after dosing; assay type: in vivo; details: IP 10 mg/kg every 12 hr, 4 days
T1 construct: Whole brain protein lysates were then prepared in a Dounce homogenizer; from tissue; host or cells: brain of wild-type mice
T1 sequence (P54763 19-986): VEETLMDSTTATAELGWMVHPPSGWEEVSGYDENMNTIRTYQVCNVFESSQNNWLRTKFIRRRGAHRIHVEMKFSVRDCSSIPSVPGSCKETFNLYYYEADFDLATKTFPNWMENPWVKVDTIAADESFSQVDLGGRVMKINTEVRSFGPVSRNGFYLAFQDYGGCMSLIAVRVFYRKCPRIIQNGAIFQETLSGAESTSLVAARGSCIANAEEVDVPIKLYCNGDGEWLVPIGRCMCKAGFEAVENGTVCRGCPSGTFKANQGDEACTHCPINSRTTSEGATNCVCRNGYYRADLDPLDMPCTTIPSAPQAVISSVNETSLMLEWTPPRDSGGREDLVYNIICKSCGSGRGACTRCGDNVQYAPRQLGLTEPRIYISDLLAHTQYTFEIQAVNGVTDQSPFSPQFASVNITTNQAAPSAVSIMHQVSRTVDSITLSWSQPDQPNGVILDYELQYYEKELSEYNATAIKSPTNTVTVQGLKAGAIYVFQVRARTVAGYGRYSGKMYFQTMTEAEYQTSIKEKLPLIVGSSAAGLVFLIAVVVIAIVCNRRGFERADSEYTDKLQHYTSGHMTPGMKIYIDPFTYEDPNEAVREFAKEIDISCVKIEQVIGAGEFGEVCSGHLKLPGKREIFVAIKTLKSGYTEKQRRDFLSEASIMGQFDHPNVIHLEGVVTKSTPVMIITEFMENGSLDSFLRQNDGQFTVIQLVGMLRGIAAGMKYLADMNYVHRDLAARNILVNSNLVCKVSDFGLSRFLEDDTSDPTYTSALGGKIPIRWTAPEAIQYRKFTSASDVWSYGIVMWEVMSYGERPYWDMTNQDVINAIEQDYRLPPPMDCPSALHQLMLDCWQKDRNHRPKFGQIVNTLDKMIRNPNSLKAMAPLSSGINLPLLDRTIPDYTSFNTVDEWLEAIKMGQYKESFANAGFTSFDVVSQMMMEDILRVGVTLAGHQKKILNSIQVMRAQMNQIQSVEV
Method: Wild-type mice aged 10-12 weeks were IP injected every 12 hr for four days with vehicle (PBS) or 10 mg/kg of 2×·HCl salt forms of A20 (in PBS), A20-I (in PBS), or 3511-I, in 94% PBS/6% DMSO) for a total of 8 injections. Exactly 2 hr after final injection of A20 chemical, brains were dissected and frozen at −80 °C. Whole brain protein lysates were then prepared in a Dounce homogenizer using 5 ml PLC lysis buffer, and 1 ml of lysate was used for immunoprecipitation (IP) with 1 μg goat anti-EphB2 antibody, followed by immunoblot (IB) analysis with goat anti-EphB2, rabbit anti-phosphoEphB1/B2 (pEphB1/B2), and mouse anti-EphrinB2 antibodies using appropriate HRP conjugated secondary antibodies and chemiluminescent detection methods.
FIG. 79A depicts an illustrative immunoblot showing expression of EphB2, phospho-EphB1/B2, and EphrinB2 (co-IP) in the mouse brains. […] The level of co-immunoprecipitated EphrinB2 from the brains of A20 chemical injected animals was generally lower as indicated by fainter bands. FIGS. 79B and 79C show quantification of band intensities (number of photons detected) to obtain ratios of pEphB/EphB2 as a measure of EphB2 receptor activation levels (FIG. 79B) and ratios of EphrinB2/EphB2 as a measure of how much EphrinB2 is co-immunoprecipitated with the EphB2 receptor (FIG. 79C).

[2] = system: Zymosan-induced mechanical pain in mice; experiment: Zymosan inflammatory pain, mechanical; assay type: in vivo, mouse; details: PO; for mechanical pain ratio: vehicle about 3
Method: An alternative and potentially faster pain model using Zymosin (an inflammatory agent like CFA) to induce inflammatory pain was tested. […] Mice were first acclimated to the pain testing set ups and then subjected to baseline mechanical and thermal pain measurements. Early in the morning the following day, the left hind paws were injected subcutaneously with 30 μL of Zymosan (5 mg/ml in PBS; Z4250, Sigma-Aldrich). Two hours after the Zymosan injection, the left hind paws were assessed for thermal pain using Hargreaves device (2-4 hr), and then left paws tested for mechanical pain using VF filaments (4-6 hr), and then again for thermal pain (6-8 hr). Data from two independent experiments were pooled to increase the n values for the three different genotypes. […] Thermal pain increased in all group following Zymosan injury as indicated by a decreased average response time to the infrared heat source in all animals assessed, and the level of pain intensified from the 2-4 hr testing period to the 6-8 hr period.
Inflammatory pain was induced by subcutaneous injection of 30 μl of 5 mg/ml Zymosan into the right hind paws of 12 wild-type adult male mice (5-6 months age, 129×1/SvJ background) that in previous days were acclimated to the testing chambers and assessed to obtain baseline pain measurements. After 15 min, mice were orally dosed with either vehicle only (97% PBS/3% DMSO) or with 20, 10, or 5 mg/kg of A20 (2×·HCl salt in vehicle), 3 mice for each condition. Two hours after Zymosan injection, the right hind paws were assessed for thermal pain using Hargreaves device (2-4 hr), then mice were orally dosed again with vehicle only or A20 chemicals, and then right paws tested for mechanical pain using VF filaments (4-6 hr), and then again for thermal pain (6-8 hr).
Inflammatory pain was induced by subcutaneous injection of 30 μl of 5 mg/ml Zymosan into the left hind paws of 9 wild-type adult males (5-6 months age, 129/CD1 mixed background) that in previous days were acclimated to the testing chambers and assessed to obtain baseline pain measurements. After 15 min, mice were orally dosed with either vehicle only (97% PBS/3% DMSO) or with 20 mg/kg of 3511-I (2×·HCl salt in vehicle), or 20 mg/kg BQPB4 (3×·HCl salt in 97% sunflower seed oil/3% DMSO), 3 mice for each condition. Two hours after Zymosan injection, the left […] hind paws were assessed for mechanical pain using VF filaments (2-4 hr), then mice were orally dosed again with vehicle only or A20 chemicals, and then left hind paws tested for thermal pain using Hargreaves device (4-6 hr), and then again for mechanical pain (6-8 hr).

Compound | half-life [1] [h] | association of EphrinB2 with EphB2 in brain (EphB2-EphrinB2) | mechanical pain [2] | mechanical pain ratio [2] | metabolic stability ([1]; listed as A20-1) | metabolic stability ([1]; listed as A20-I)
Oc1ccc(CN2CCOCC2)c2cccnc12 [Compound 1, 5-(morpholinomethyl)quinolin-8-ol] | 0.367 | – | – | – | – | –
Oc1c(Br)cc(CN2CCOCC2)c2cccnc12 [Compound 5, 7-bromo-5-(morpholinomethyl)quinolin-8-ol] | 3.73 | reduced level of association with EphrinB2 | significant reductions in both mechanical and thermal pain | ~1 | – | –
Oc1c(I)cc(CN2CCOCC2)c2cccnc12 [Compound 7, 7-iodo-5-(morpholinomethyl)quinolin-8-ol] | – | reduced level of association with EphrinB2 | – | – | longer in vitro half-life | increased in vitro metabolic stability compared to A20
Oc1c(Br)cc(CN2CCN(c3ccc(Br)cc3)CC2)c2cccnc12 [Compound 28, 7-bromo-5-((4-(4-bromophenyl)piperazin-1-yl)methyl)quinolin-8-ol] | – | – | essentially no enhanced mechanical pain sensitivity | ~1 | – | –
COc1ccccc1N1CCN(Cc2cc(Br)c(O)c3ncccc23)CC1 [Compound 70, 7-bromo-5-((4-(2-methoxyphenyl)piperazin-1-yl)methyl)quinolin-8-ol] | 2.27 | – | – | – | – | –
COc1ccccc1N1CCN(Cc2cc(I)c(O)c3ncccc23)CC1 [Compound 71, 7-iodo-5-((4-(2-methoxyphenyl)piperazin-1-yl)methyl)quinolin-8-ol] | – | reduced level of association with EphrinB2 | somewhat blunted mechanical pain response | – | – | –
